Measurements published in patent publication US20120028265A1, “METHODS OF USING RET NANOSENSORS” (priority 2007, published 2012).

How the values were obtained:
[1] = test system: E. coli L-arabinose binding protein AraF, unmodified; settings: tryptophan fluorescence spectroscopy, read-out: affinity (Kd); cited from earlier work
[2] = molecular target: glucose nanosensor (not named in Example 9); settings: read-out: affinity constant for glucose
Description: The confidence range for calculation of intracellular glucose concentrations is determined by the quality of the recorded sensor response data. As a rule of thumb, data with standard deviations off ±2.5% and ±5% can be interpreted between 10% and 90% and between 20% and 80% saturation, respectively. Monitoring the sensor response in presence of alternating analyte concentrations yields information about transport and metabolism in the targeted subcellular compartment from (1) the intracellular accumulation rate upon addition of the analyte, which is composed of influx rate minus metabolism and export rates, (2) the elimination rate when the analyte is removed, which is composed of export plus metabolism minus influx, (3) the steady state level of the sensor response, in which influx equals metabolism and efflux, and (4) the time delay before a sensor response can be recorded, which represents differences in influx rates or metabolism.

[3] = molecular target: FLII12Pglu700μ-δ6 glucose nanosensor (Escherichia coli, UniProt P0AEE5); assay type: binding; settings: read-out: Kd, affinity constant of nanosensor; used for theoretical saturation curve
Description: (A) Theoretical curve of glucose-induced FRET changes of FLII12Pglu700μ-δ6. […] Light gray shaded area indicates 10-90% confidence range of FLII12Pglu700μ-δ6 detection range, the dark gray shaded area indicates 20-80% confidence range. (B) Effect of the variation in ratio data (SD) on the determination of glucose concentrations. […] The calculated glucose concentration from the average of ratio data was set as 100%. In vivo glucose concentration was calculated from the equation: [gluc]vivo=Kd×(Δr−1)/(ΔRmax−Δr) with [G], glucose concentration; Kd, affinity constant of nanosenor; Δr, partial ratio change; ΔRmax, maximum ratio change. (C) Examples of in vivo glucose concentration dynamics upon cell perfusion and nanosenor range of FLII12Pglu700μ-δ6. The glucose concentration dynamics within the nanosenor range report differences in 1) accumulation rate, 2) elimination rate, 3) steady-state level, and 4) delay in nanosenor response. Gray lines indicate real in vivo glucose concentration dynamics and black lines indicate the nanosenor saturation of FLII12Pglu700μ-δ6. (D) In vivo glucose concentration-time plot (black line) with ratio ±SD and confidence range (grey lines) of FLII12Pglu700μ-δ6.

[4] = molecular target: FLIParaF.Ec-200n, FRET nanosensor: E. coli K12 AraF (L-arabinose binding protein) fused between eCFP and Venus (Escherichia coli, UniProt P02924); test: In vitro FRET titration of purified arabinose nanosensor; settings: D/L-arabinose; apparent; purified sensor, 20 mM MOPS pH 7.0, Venus/eCFP emission ratio 528/485 nm, single-site isotherm
Text: The araF gene (EMBL: K00420) was amplified from Escherichia coli K12 genomic DNA using homologous primers, resulting in a PCR product that consisted of araF without stopcodon flanked by phage lambda attB recombination sites. The araF gene was fused between eCFP and Venus coding sequences of pGW1 through pDONR (Invitrogen) using […] (Invitrogen), respectively. The final construct was denoted pGW1araF.Ec and the correct sequence of the araF gene was verified by DNA sequencing (Sequetech). The gene product encoded on pGW1araF.Ec was denoted FLIParaF.Ec-200n.
The eCFP emission used for the ratio calculation was determined at 485 nm. Protein was diluted to give Venus/eYFP readouts of 20,000 to 30,000 at a manual gain between 70-75. By using the change in FRET ratio upon binding of ligand, affinity constants (Kd) were determined by fitting the titration curves to a single-site-binding isotherm:
R=Rapo+(Rsat−Rapo)·(n·[L])/(Kd+[L])
with [L], ligand concentration; n, number of equal binding sites; R, ratio; Rapo, ratio in the absence of ligand; and Rsat, ratio at saturation with ligand. Three independent protein preparations were analyzed and each protein preparation was analyzed in triplicate.

Sequence of FLIParaF.Ec-200n, FRET nanosensor: E. coli K12 AraF (L-arabinose binding protein) fused between eCFP and Venus (P02924 24-329): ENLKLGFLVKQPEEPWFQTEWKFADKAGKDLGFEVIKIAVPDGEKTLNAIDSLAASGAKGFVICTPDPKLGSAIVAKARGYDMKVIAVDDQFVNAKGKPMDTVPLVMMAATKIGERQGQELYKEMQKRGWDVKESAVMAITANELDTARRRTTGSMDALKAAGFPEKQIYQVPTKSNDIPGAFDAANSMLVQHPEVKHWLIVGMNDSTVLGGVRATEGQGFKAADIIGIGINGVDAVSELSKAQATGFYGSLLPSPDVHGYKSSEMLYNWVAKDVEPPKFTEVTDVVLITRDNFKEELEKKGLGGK
Sequence of FLII12Pglu700μ-δ6 glucose nanosensor (P0AEE5 24-332 limits assumed): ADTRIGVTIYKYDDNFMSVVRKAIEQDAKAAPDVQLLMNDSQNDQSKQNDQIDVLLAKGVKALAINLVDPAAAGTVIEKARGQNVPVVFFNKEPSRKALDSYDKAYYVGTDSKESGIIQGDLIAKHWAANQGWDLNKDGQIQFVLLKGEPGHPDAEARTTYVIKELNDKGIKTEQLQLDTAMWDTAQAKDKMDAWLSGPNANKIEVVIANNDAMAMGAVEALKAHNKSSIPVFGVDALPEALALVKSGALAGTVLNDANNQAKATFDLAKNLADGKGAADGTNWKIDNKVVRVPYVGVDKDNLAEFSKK

Which Kd [1] does the source give for `OC1OC[C@H](O)[C@H](O)[C@H]1O` (stereo partly drawn) [L-arabinose] here?
The Kd was 0.098 ± 0.033 µM.

For `OC[C@H]1OC(O)[C@H](O)[C@@H](O)[C@@H]1O` (stereo partly shown) [glucose], which Kd [2] is on record?
Its Kd is 600 µM.

And the Kd [3]?
Its Kd is 660 µM.

Which Kd [4] does the source give for `OC1COC(O)C(O)C1O` (racemic) [D/L-arabinose] here?
Its Kd is 0.23 ± 0.018 µM.
